Experimental findings from US11551827B2, “Perfluorinated 1-alkoxypropenes in dielectric fluids and electrical devices” (priority 2017, dated 2023) are described below.

A short description of this data set: Gaseous dielectric breakdown voltage measurement (Hipotronics OC60D-A dielectric strength tester). The settings on record: for Dielectric breakdown voltage: gas, 0.1 inch (2.5 mm) gap, copper electrodes; for Performance as electrical insulator and interrupter (in words): judged from the dielectric breakdown voltage values in Tables 2 and 3. Type of data set: physicochemical. How it is done: The gaseous dielectric breakdown voltages of PE-1, PE-2, CE-1, CE-2, and CE-3 were measured experimentally using a Hipotronics OC60D-A dielectric strength tester (available from Hipotronics, Brewster, N.Y., USA), which was modified to allow measurements on low pressure gases. The electrode configuration consisted of two copper electrodes separated by a 0.1 inch (2.5 mm) gap housed in a gas tight PFTE (polytetrafluoroethylene) test chamber. The test chamber was first evacuated and then PE-1, PE-2, CE-1, CE-2, or CE-3 was charged to full vapor pressure and evacuated to the measured pressures indicated in Tables 2 and 3. The dielectric breakdown voltage (measured in kV) was measured after each evacuation to determine the dielectric strength and the results are summarized in Tables 2 and 3.

On to `FC(OC(F)(F)F)=C(F)C(F)(F)F` [PE-2, 1,2,3,3,3-Pentafluoro-1-(Perfluoromethoxy)Prop-1-Ene], for which the “Performance as electrical insulator and interrupter (in words)” value was “excellent electrical insulators and interrupters”. For the same compound, the Dielectric breakdown voltage (pressure 20 kPa) is recorded as 8.8 kV. This compound also registered a Dielectric breakdown voltage (pressure 40 kPa) of 10.9 kV. This compound displayed a Dielectric breakdown voltage (pressure 60 kPa) of 15.6 kV. The Dielectric breakdown voltage (pressure 80 kPa) came out at 19.5 kV. The compound also had a Dielectric breakdown voltage (pressure 100 kPa) of 22.7 kV. This compound also registered a Dielectric breakdown voltage (pressure 120 kPa) of 25.7 kV. For the same compound, the Dielectric breakdown voltage (pressure 140 kPa) was 28.9 kV.

For the compound `FC(OC(F)(F)C(F)(F)F)=C(F)C(F)(F)F` [PE-1, 1,2,3,3,3-Pentafluoro-1-(Perfluoroethoxy)Prop-1-Ene], the “Performance as electrical insulator and interrupter (in words)” value was “excellent electrical insulators and interrupters”. The same compound returned a Dielectric breakdown voltage (pressure 20 kPa) of 8.7 kV. The same compound displayed a Dielectric breakdown voltage (pressure 40 kPa) of 13.5 kV. For the same compound, the Dielectric breakdown voltage (pressure 60 kPa) is reported as 18.7 kV.

On to `FS(F)(F)(F)(F)F` [CE-2, Sulfur hexafluoride], for which the Dielectric breakdown voltage runs as follows: (pressure 13.9 kPa) 4.6 kV; (pressure 27.6 kPa) 5.4 kV; (pressure 41.4 kPa) 7.8 kV; (pressure 55.2 kPa) 9.5 kV; (pressure 69.0 kPa) 10.9 kV; (pressure 82.8 kPa) 12.5 kV. Besides, the Dielectric breakdown voltage (pressure 110 kPa) turned out to be 15.3 kV, the Dielectric breakdown voltage (pressure 124 kPa) is listed as 16.7 kV and the Dielectric breakdown voltage (pressure 139 kPa) is 18.0 kV.

Turning to `FC(F)=C(F)C(F)(F)F` [CE-1, Hexafluoropropene], the Dielectric breakdown voltage is listed as 8.8 kV (pressure 20 kPa); 9.8 kV (pressure 40 kPa); 11.5 kV (pressure 60 kPa); 13.9 kV (pressure 80 kPa); 16.3 kV (pressure 100 kPa); 18.4 kV (pressure 120 kPa). The compound further returned a Dielectric breakdown voltage (pressure 140 kPa) of 20.1 kV.

Consider `FC1(F)C(F)(F)C1(F)F` [CE-3, Perfluorocyclopropane], for which the Dielectric breakdown voltage amounted to 4.6 kV (pressure 13.9 kPa); 6.4 kV (pressure 27.6 kPa); 8.0 kV (pressure 41.4 kPa); 9.5 kV (pressure 55.2 kPa); 10.6 kV (pressure 69.0 kPa); 12.0 kV (pressure 82.8 kPa). Further, the Dielectric breakdown voltage is reported as 14.7 kV (pressure 110 kPa), 16.0 kV (pressure 124 kPa) and 17.1 kV (pressure 139 kPa).
